# Measurements: patent US5266578A, “Heterocyclically substituted quinolylmethoxy-phenylacetamides” (Bayer Aktiengesellschaft, priority 1991, dated 1993)
# Tested on: 5-LO
# Test: lipoxygenase inhibition: release of leukotriene B4 in polymorphonuclear human leukocytes (PMN) after addition of substances and Ca ionophore, reverse phase HPLC
# Assay type: cell-based
# Conditions: LTB4 release
# Experimental: The pharmacological effects of the substances according to the invention are determined by the following method:
# As a measure of the lipoxygenase inhibition, the release of leukotriene B4 (LTB.) in polymorphonuclear human leukocytes (PMN) was determined by addition of substances and Ca ionophore by means of reverse phase HPLC according to Borgeat, P. et al., Proc. Nat. Acad. Sci, 76, 2148-2152 (1979).
# Table 1 lists by way of example the values obtained by this test for some compounds according to the invention: […]
row,Compound,IC50 [µM]
1,"O=C(Nc1ccccn1)C(c1ccc(OCc2ccc3ccccc3n2)cc1)C1CCCCCC1 (stereo not shown) [Example 1, N-(2-Pyridyl)-2-[4-(quinolin-2-yl-methoxy)phenyl]-2-cycloheptyl-acetamide]",0.5
2,"O=C(Nc1nnn[nH]1)C(c1ccc(OCc2ccc3ccccc3n2)cc1)C1CCCCCC1 (stereo not shown) [Example 2, N-(5-Tetrazolyl)-2-[4-(quinoline-2-yl-methoxy)phenyl]-2-cycloheptyl-acetamide]",0.26
3,"O=C(Nc1nccs1)C(c1ccc(OCc2ccc3ccccc3n2)cc1)C1CCCCCC1 (stereo not shown) [Example 4, N-(2-Thiazolyl)-2-[4-(quinolin-2-yl-methoxy)phenyl]-2-cycloheptyl-acetamide]",0.43
4,"O=C(NC1=NCCS1)C(c1ccc(OCc2ccc3ccccc3n2)cc1)C1CCCCCC1 (stereo not shown) [Example 3, N-(2-Thiazolinyl)-2-[4-(quinolin-2-yl-methoxy)phenyl]-2-cycloheptyl-acetamide]",0.29
